Tests used:
Assay type in all cases: in vivo
[1] = system: barnyardgrass (Echinochloa crus-galli); experiment: Test A preemergence, barnyardgrass; conditions: 0 to 100 scale
Text: (§1) Seeds of plant species selected from barnyardgrass (Echinochloa crus-galli), kochia (Kochia scoparia), ragweed (common ragweed, Ambrosia elatior), ryegrass, Italian (Lolium multiflorum), foxtail, giant (Setaria faberii), foxtail, green (Setaria viridis), and pigweed (Amaranthus retroflexus) were planted into a blend of loam soil and sand and treated preemergence with a directed soil spray using test chemicals formulated in a non-phytotoxic solvent mixture which included a surfactant.
(§2) At the same time, plants selected from these weed species and also wheat (Triticum aestivum), corn (Zea mays), blackgrass (Alopecurus myosuroides), and galium (catchweed bedstraw, Galium aparine) were planted in pots containing the same blend of loam soil and sand and treated with postemergence applications of test chemicals formulated in the same manner. Plants ranged in height from 2 to 10 cm and were in the one- to two-leaf stage for the postemergence treatment. Treated plants and untreated controls were maintained in a greenhouse for approximately 10 d, after which time all treated plants were compared to untreated controls and visually evaluated for injury. Plant response ratings, summarized in Table A, are based on a 0 to 100 scale where 0 is no effect and 100 is complete control. A dash (-) response means no test result.

[2] = system: ryegrass, Italian (Lolium multiflorum); experiment: Test A preemergence, Italian ryegrass; conditions: 0 to 100 scale
Text: as §1, §2

[3] = system: galium (catchweed bedstraw, Galium aparine); experiment: Test A postemergence, galium; conditions: 0 to 100 scale
Text: as §1, §2

kochia (Kochia scoparia) [4] = experiment: Test A preemergence, kochia; conditions: 0 to 100 scale
Text: as §1, §2

[5] = system: wheat (Triticum aestivum); experiment: Test A postemergence, wheat; conditions: 0 to 100 scale
Text: as §1, §2

[6] = system: sedge, umbrella (small-flower umbrella sedge, Cyperus difformis); experiment: Test B flooded paddy test, umbrella sedge; conditions: Flood, 250 g ai/ha, applied to paddy water, 2-leaf stage, visual evaluation after 13 to 15 d
Description: (§3) Plant species in the flooded paddy test selected from rice (Oryza sativa), sedge, umbrella (small-flower umbrella sedge, Cyperus difformis), ducksalad (Heteranthera limosa), and barnyardgrass (Echinochloa crus-galli) were grown to the 2-leaf stage for testing. At the time of treatment, test pots were flooded to 3 cm above the soil surface, treated by application of test compounds directly to the paddy water, and then maintained at that water depth for the duration of the test. Treated plants and controls were maintained in a greenhouse for 13 to 15 d, after which time all species were compared to controls and visually evaluated. Plant response ratings, summarized in Table B, are based on a scale of 0 to 100 where 0 is no effect and 100 is complete control. A dash (-) response means no test result.

[7] = system: foxtail, giant (Setaria faberii); experiment: Test A postemergence, giant foxtail; conditions: 0 to 100 scale
Text: as §1, §2

[8] = system: pigweed (Amaranthus retroflexus); experiment: Test A preemergence, pigweed; conditions: 0 to 100 scale
Text: as §1, §2

[9] = system: barnyardgrass (Echinochloa crus-galli); experiment: Test A postemergence, barnyardgrass; conditions: 0 to 100 scale
Text: as §1, §2

rice (Oryza sativa) = experiment: Test B flooded paddy test, rice; conditions: Flood, 250 g ai/ha, applied to paddy water, 2-leaf stage, visual evaluation after 13 to 15 d
Description: as §3

[10] = system: ducksalad (Heteranthera limosa); experiment: Test B flooded paddy test, ducksalad; conditions: Flood, 250 g ai/ha, applied to paddy water, 2-leaf stage, visual evaluation after 13 to 15 d
Description: as §3

kochia (Kochia scoparia) [11] = experiment: Test A postemergence, kochia; conditions: 0 to 100 scale
Text: as §1, §2

[12] = system: ragweed (common ragweed, Ambrosia elatior); experiment: Test A postemergence, ragweed; conditions: 0 to 100 scale
Text: as §1, §2

[13] = system: barnyardgrass (Echinochloa crus-galli); experiment: Test B flooded paddy test, barnyardgrass; conditions: Flood, 250 g ai/ha, applied to paddy water, 2-leaf stage, visual evaluation after 13 to 15 d
Description: as §3

[14] = system: blackgrass (Alopecurus myosuroides); experiment: Test A postemergence, blackgrass; conditions: 0 to 100 scale
Text: as §1, §2

[15] = system: foxtail, giant (Setaria faberii); experiment: Test A preemergence, giant foxtail; conditions: 0 to 100 scale
Text: as §1, §2

corn (Zea mays) = experiment: Test A postemergence, corn; conditions: 0 to 100 scale
Text: as §1, §2

[16] = system: pigweed (Amaranthus retroflexus); experiment: Test A postemergence, pigweed; conditions: 0 to 100 scale
Text: as §1, §2

[17] = system: ryegrass, Italian (Lolium multiflorum); experiment: Test A postemergence, Italian ryegrass; conditions: 0 to 100 scale
Text: as §1, §2

## C[C@H](Nc1ncc(C(F)(F)F)c(N)n1)C1Cc2ccccc2C1 [Compound 12]
[1]; 125 g ai/ha
  Plant response rating, Barnyardgrass: 0
[1]; 500 g ai/ha
  Plant response rating, Barnyardgrass: 0
[2]; 125 g ai/ha
  Plant response rating, Ryegrass, Italian: 0
[2]; 500 g ai/ha
  Plant response rating, Ryegrass, Italian: 0
[3]; 125 g ai/ha
  Plant response rating, Galium: 0
[3]; 500 g ai/ha
  Plant response rating, Galium: 0
Kochia (Kochia scoparia) [4]; 125 g ai/ha
  Plant response rating, Kochia: 0
Kochia (Kochia scoparia) [4]; 500 g ai/ha
  Plant response rating, Kochia: 0
[5]; 125 g ai/ha
  Plant response rating, Wheat: 0
[5]; 500 g ai/ha
  Plant response rating, Wheat: 0
[6]
  Plant response rating, Sedge, Umbrella (0 to 100 scale, 0 is no effect, 100 is complete control): 0
[7]; 125 g ai/ha
  Plant response rating, Foxtail, Giant: 0
[7]; 500 g ai/ha
  Plant response rating, Foxtail, Giant: 0
[8]; 125 g ai/ha
  Plant response rating, Pigweed: 0
[8]; 500 g ai/ha
  Plant response rating, Pigweed: 50
[9]; 125 g ai/ha
  Plant response rating, Barnyardgrass: 0
[9]; 500 g ai/ha
  Plant response rating, Barnyardgrass: 0
Rice (Oryza sativa)
  Plant response rating, Rice (0 to 100 scale, 0 is no effect, 100 is complete control): 0
[10]
  Plant response rating, Ducksalad (0 to 100 scale, 0 is no effect, 100 is complete control): 0
Kochia (Kochia scoparia) [11]; 125 g ai/ha
  Plant response rating, Kochia: 0
Kochia (Kochia scoparia) [11]; 500 g ai/ha
  Plant response rating, Kochia: 30
[12]; 125 g ai/ha
  Plant response rating, Ragweed: 0
[12]; 500 g ai/ha
  Plant response rating, Ragweed: 0
[13]
  Plant response rating, Barnyardgrass (0 to 100 scale, 0 is no effect, 100 is complete control): 0
[14]; 125 g ai/ha
  Plant response rating, Blackgrass: 0
[14]; 500 g ai/ha
  Plant response rating, Blackgrass: 0
[15]; 125 g ai/ha
  Plant response rating, Foxtail, Giant: 0
[15]; 500 g ai/ha
  Plant response rating, Foxtail, Giant: 0
Corn (Zea mays); 125 g ai/ha
  Plant response rating, Corn: 0
Corn (Zea mays); 500 g ai/ha
  Plant response rating, Corn: 0
[16]; 125 g ai/ha
  Plant response rating, Pigweed: 30
[16]; 500 g ai/ha
  Plant response rating, Pigweed: 40
[17]; 125 g ai/ha
  Plant response rating, Ryegrass, Italian: 0
[17]; 500 g ai/ha
  Plant response rating, Ryegrass, Italian: 0

## Cc1cc2oc([C@@H](C)Nc3ncc(C(F)(F)F)c(N)n3)cc2cc1F [Compound 31]
[1]; 125 g ai/ha
  Plant response rating, Barnyardgrass: 70
[1]; 500 g ai/ha
  Plant response rating, Barnyardgrass: 100
[2]; 125 g ai/ha
  Plant response rating, Ryegrass, Italian: 20
[2]; 500 g ai/ha
  Plant response rating, Ryegrass, Italian: 80
[3]; 125 g ai/ha
  Plant response rating, Galium: 70
[3]; 500 g ai/ha
  Plant response rating, Galium: 100
Kochia (Kochia scoparia) [4]; 125 g ai/ha
  Plant response rating, Kochia: 40
Kochia (Kochia scoparia) [4]; 500 g ai/ha
  Plant response rating, Kochia: 90
[5]; 125 g ai/ha
  Plant response rating, Wheat: 0
[5]; 500 g ai/ha
  Plant response rating, Wheat: 0
[6]
  Plant response rating, Sedge, Umbrella (0 to 100 scale, 0 is no effect, 100 is complete control): 0
[7]; 125 g ai/ha
  Plant response rating, Foxtail, Giant: 10
[7]; 500 g ai/ha
  Plant response rating, Foxtail, Giant: 70
[8]; 125 g ai/ha
  Plant response rating, Pigweed: 90
[8]; 500 g ai/ha
  Plant response rating, Pigweed: 100
[9]; 125 g ai/ha
  Plant response rating, Barnyardgrass: 20
[9]; 500 g ai/ha
  Plant response rating, Barnyardgrass: 80
Rice (Oryza sativa)
  Plant response rating, Rice (0 to 100 scale, 0 is no effect, 100 is complete control): 0
[10]
  Plant response rating, Ducksalad (0 to 100 scale, 0 is no effect, 100 is complete control): 0
Kochia (Kochia scoparia) [11]; 125 g ai/ha
  Plant response rating, Kochia: 60
Kochia (Kochia scoparia) [11]; 500 g ai/ha
  Plant response rating, Kochia: 90
[12]; 125 g ai/ha
  Plant response rating, Ragweed: 60
[12]; 500 g ai/ha
  Plant response rating, Ragweed: 90
[13]
  Plant response rating, Barnyardgrass (0 to 100 scale, 0 is no effect, 100 is complete control): 0
[14]; 125 g ai/ha
  Plant response rating, Blackgrass: 20
[14]; 500 g ai/ha
  Plant response rating, Blackgrass: 10
[15]; 125 g ai/ha
  Plant response rating, Foxtail, Giant: 90
[15]; 500 g ai/ha
  Plant response rating, Foxtail, Giant: 100
Corn (Zea mays); 125 g ai/ha
  Plant response rating, Corn: 0
Corn (Zea mays); 500 g ai/ha
  Plant response rating, Corn: 30
[16]; 125 g ai/ha
  Plant response rating, Pigweed: 90
[16]; 500 g ai/ha
  Plant response rating, Pigweed: 100
[17]; 125 g ai/ha
  Plant response rating, Ryegrass, Italian: 30
[17]; 500 g ai/ha
  Plant response rating, Ryegrass, Italian: 10

Source: US20220119354A1, “DIAMINO-SUBSTITUTED PYRIDINES AND PYRIMIDINES AS HERBICIDES” (FMC Corporation, priority 2019, published 2022)
